# According to PubChem BioAssay AID248 (DTP/NCI, 2004):
# Values joined by “and” are separate entries in the source; they are usually repeats but may differ in a detail not shown here. Equal values may be shown once. Toxic doses and inconclusive results are not listed.
# Tested on: L1210 leukemia ip in BDF1 mice, survival T/C
# Assay: NCI In Vivo Anticancer Drug Screen. Data for tumor model L1210 Leukemia (intraperitoneal) in B6D2F1 (BDF1) mice
# Details: endpoint: mean survival time, higher = longer survival
# In short: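 In this screen, tumor-bearing mice given compound are compared to those given vehicle, and their survival values are reported as a treated-to-control quotient.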
# [1] = dose: 25.0 mg/kg/injection, schedule: Q01DX009 (ip), vehicle: saline with Tween-80
# [2] = dose: 50.0 mg/kg/injection, schedule: Q01DX009 (ip), vehicle: saline with Tween-80
# [3] = dose: 100.0 mg/kg/injection, schedule: Q01DX009 (ip), vehicle: saline with Tween-80
# [4] = dose: 200.0 mg/kg/injection, schedule: Q01DX009 (ip), vehicle: saline with Tween-80
# [5] = dose: 50.0 mg/kg/injection, schedule: Q04DX002 (ip), vehicle: Klucel (hydroxypropylcellulose) (HPC)
# [6] = dose: 100.0 mg/kg/injection, schedule: Q04DX002 (ip), vehicle: Klucel (hydroxypropylcellulose) (HPC)
# [7] = dose: 200.0 mg/kg/injection, schedule: Q04DX002 (ip), vehicle: Klucel (hydroxypropylcellulose) (HPC)
# [8] = dose: 400.0 mg/kg/injection, schedule: Q04DX002 (ip), vehicle: Klucel (hydroxypropylcellulose) (HPC)
# [9] = dose: 3.13 mg/kg/injection, schedule: Q01DX009 (ip), vehicle: saline with Tween-80
# [10] = dose: 6.25 mg/kg/injection, schedule: Q01DX009 (ip), vehicle: saline with Tween-80
# [11] = dose: 12.5 mg/kg/injection, schedule: Q01DX009 (ip), vehicle: saline with Tween-80
# [12] = dose: 50.0 mg/kg/injection, schedule: Q01DX009 (ip), vehicle: saline
# [13] = dose: 100.0 mg/kg/injection, schedule: Q01DX009 (ip), vehicle: saline
# [14] = dose: 100.0 mg/kg/injection, schedule: Q04DX003 (ip), vehicle: saline
# [15] = dose: 200.0 mg/kg/injection, schedule: Q01DX009 (ip), vehicle: saline
# [16] = dose: 200.0 mg/kg/injection, schedule: Q04DX003 (ip), vehicle: saline
# [17] = dose: 400.0 mg/kg/injection, schedule: Q01DX009 (ip), vehicle: saline
# [18] = dose: 400.0 mg/kg/injection, schedule: Q04DX003 (ip), vehicle: saline
compound,measurement,setting,value
CCCCCCCCCCCCCCCCCC(=O)OCC1(COC(=O)CCCCCCCCCCCCCCCCC)COC(CCCCCCCCCCCCCCCCC)=N1,T/C,"dose: 100.0 mg/kg/injection, schedule: Q01DX001 (ip), vehicle: Klucel (hydroxypropylcellulose) (HPC)",92 % of control
same,T/C,"dose: 200.0 mg/kg/injection, schedule: Q01DX001 (ip), vehicle: Klucel (hydroxypropylcellulose) (HPC)",95 % of control
same,T/C,"dose: 400.0 mg/kg/injection, schedule: Q01DX001 (ip), vehicle: Klucel (hydroxypropylcellulose) (HPC)",109 % of control
Nc1ncnc(N)c1NC(=O)Cc1ccccc1,T/C,"dose: 100.0 mg/kg/injection, schedule: Q01DX001 (ip), vehicle: saline with Tween-80",98 % of control
same,T/C,"dose: 200.0 mg/kg/injection, schedule: Q01DX001 (ip), vehicle: saline with Tween-80",97 % of control
same,T/C,"dose: 400.0 mg/kg/injection, schedule: Q01DX001 (ip), vehicle: saline with Tween-80",98 % of control
CCOC(=O)c1nc(N)n[nH]1,T/C,"dose: 100.0 mg/kg/injection, schedule: Q04DX003 (ip), vehicle: saline with Tween-80",106 % of control
same,T/C,"dose: 200.0 mg/kg/injection, schedule: Q04DX003 (ip), vehicle: saline with Tween-80",104 % of control
same,T/C,"dose: 400.0 mg/kg/injection, schedule: Q04DX003 (ip), vehicle: saline with Tween-80",101 % of control
O=C(Nc1ccccc1)C1=C(Nc2ccccc2)CSC1,T/C,[1],109 % of control
same,T/C,[2],100 % of control
same,T/C,[3],94 % of control
same,T/C,[4],98 % of control
same,T/C,"dose: 400.0 mg/kg/injection, schedule: Q01DX009 (ip), vehicle: saline with Tween-80",89 % of control
Clc1ccc2c(c1)C1c3ccccc3C2C2c3ccccc3C1c1ccccc12 (configuration not stated),T/C,[5],117 % of control
same,T/C,[6],102 % of control
same,T/C,[7],95 % of control and 88 % of control
same,T/C,[8],88 % of control
CNc1nc2c(N)ncnc2n1C1OC(CO)C(O)C1O (configuration not stated),T/C,"dose: 12.5 mg/kg/injection, schedule: Q04DX002 (ip), vehicle: saline",100 % of control
same,T/C,"dose: 25.0 mg/kg/injection, schedule: Q04DX002 (ip), vehicle: saline",103 % of control
same,T/C,"dose: 25.0 mg/kg/injection, schedule: Q04DX002 (ip), vehicle: suspension in saline",104 % of control
same,T/C,"dose: 50.0 mg/kg/injection, schedule: Q01DX001 (ip), vehicle: saline",104 % of control
same,T/C,"dose: 50.0 mg/kg/injection, schedule: Q04DX002 (ip), vehicle: saline",113 % of control
same,T/C,"dose: 50.0 mg/kg/injection, schedule: Q04DX002 (ip), vehicle: suspension in saline",106 % of control
same,T/C,"dose: 100.0 mg/kg/injection, schedule: Q01DX001 (ip), vehicle: saline",110 % of control
same,T/C,"dose: 100.0 mg/kg/injection, schedule: Q04DX002 (ip), vehicle: suspension in saline",106 % of control
CC(C)(Oc1ccc(Cl)cc1)C(=O)NCCCCCC(=O)O,T/C,[2],98 % of control
same,T/C,[3],98 % of control
same,T/C,[4],95 % of control
O=C1CCCCC1C(=O)C(F)(F)F (configuration not stated),T/C,"dose: 12.5 mg/kg/injection, schedule: Q01DX009 (ip), vehicle: other",104 % of control
same,T/C,"dose: 12.5 mg/kg/injection, schedule: Q04DX003 (ip), vehicle: other",103 % of control
same,T/C,"dose: 25.0 mg/kg/injection, schedule: Q01DX009 (ip), vehicle: other",104 % of control
same,T/C,"dose: 25.0 mg/kg/injection, schedule: Q04DX003 (ip), vehicle: other",93 % of control
same,T/C,"dose: 50.0 mg/kg/injection, schedule: Q01DX009 (ip), vehicle: other",98 % of control
same,T/C,"dose: 50.0 mg/kg/injection, schedule: Q04DX003 (ip), vehicle: other",97 % of control
same,T/C,"dose: 75.0 mg/kg/injection, schedule: Q01DX009 (ip), vehicle: other",97 % of control
same,T/C,"dose: 115.0 mg/kg/injection, schedule: Q01DX009 (ip), vehicle: other",87 % of control
same,T/C,"dose: 170.0 mg/kg/injection, schedule: Q01DX009 (ip), vehicle: other",89 % of control
CC(C)(C)C(=O)c1ccc(-c2ccccc2)cc1,T/C,"dose: 100.0 mg/kg/injection, schedule: Q04DX002 (ip), vehicle: other",91 % of control
same,T/C,"dose: 200.0 mg/kg/injection, schedule: Q04DX002 (ip), vehicle: other",94 % of control
same,T/C,"dose: 400.0 mg/kg/injection, schedule: Q04DX002 (ip), vehicle: other",94 % of control
CC1(C)C2=CCCC(O)C2(C)CCC1O (configuration not stated),T/C,[2],96 % of control
same,T/C,[3],96 % of control
same,T/C,[4],92 % of control
CCC(=O)C(CCN1CCC(n2c(=O)[nH]c3ccccc32)CC1)(c1ccccc1)c1ccccc1,T/C,"dose: 0.2 mg/kg/injection, schedule: Q01DX009 (ip), vehicle: saline with Tween-80",90 % of control
same,T/C,"dose: 0.4 mg/kg/injection, schedule: Q01DX009 (ip), vehicle: saline with Tween-80",89 % of control
same,T/C,"dose: 0.78 mg/kg/injection, schedule: Q01DX009 (ip), vehicle: saline with Tween-80",88 % of control
same,T/C,"dose: 0.8 mg/kg/injection, schedule: Q01DX009 (ip), vehicle: saline with Tween-80",104 % of control
same,T/C,[9],98 % of control
same,T/C,[10],93 % of control and 89 % of control
same,T/C,[11],95 % of control
same,T/C,[1],90 % of control
same,T/C,[2],86 % of control
same,T/C,[3],96 % of control and 92 % of control
Nc1c2ccccc2c[n+]2ccccc12,T/C,[12],150 % of control
same,T/C,[13],163 % of control
CC(=O)Nc1nc(Cl)c2ncn(C3OC(COCc4ccccc4)C(OCc4ccccc4)C3OCc3ccccc3)c2n1 (configuration not stated),T/C,"dose: 100.0 mg/kg/injection, schedule: Q04DX003 (ip), vehicle: Klucel (hydroxypropylcellulose) (HPC)",103 % of control
same,T/C,"dose: 200.0 mg/kg/injection, schedule: Q04DX003 (ip), vehicle: Klucel (hydroxypropylcellulose) (HPC)",103 % of control
same,T/C,"dose: 400.0 mg/kg/injection, schedule: Q04DX003 (ip), vehicle: Klucel (hydroxypropylcellulose) (HPC)",104 % of control
Cc1ccccc1-n1cccc1C(=O)O,T/C,[6],89 % of control
same,T/C,[7],96 % of control
same,T/C,[8],86 % of control
CC(=O)OC(C)CN(C)C (configuration not stated),T/C,[13],103 % of control
same,T/C,[14],103 % of control
same,T/C,[15],100 % of control
same,T/C,[16],105 % of control
same,T/C,[17],100 % of control
same,T/C,[18],93 % of control
O=[N+]([O-])c1ccc2c(c1)S(=O)c1cc([N+](=O)[O-])c(Br)cc1-2 (configuration not stated) (tested in a mixture with another compound),T/C,"dose: 50.0 mg/kg/injection, schedule: Q04DX002 (ip), vehicle: saline with Tween-80",96 % of control
same,T/C,"dose: 100.0 mg/kg/injection, schedule: Q04DX002 (ip), vehicle: saline with Tween-80",96 % of control
same,T/C,"dose: 200.0 mg/kg/injection, schedule: Q04DX002 (ip), vehicle: saline with Tween-80",96 % of control
Cc1ccc(NCCN2CCCCC2)c2c(=O)c3ccccc3sc12,T/C,[13],110 % of control
same,T/C,[15],96 % of control
same,T/C,[17],107 % of control
COc1ccc(C(=O)NC2CCC2)cc1,T/C,"dose: 25.0 mg/kg/injection, schedule: Q01DX009 (ip), vehicle: saline",100 % of control
same,T/C,[12],108 % of control
same,T/C,[13],100 % of control
Cc1ccc(C(=O)OCc2ccccc2CN2CCOCC2)cc1,T/C,[6],100 % of control
same,T/C,[7],103 % of control
same,T/C,[8],92 % of control
CC1(C)CC(=O)C2C(C1)Nc1ccccc1NC2c1cccc([N+](=O)[O-])c1 (configuration not stated),T/C,[6],109 % of control
same,T/C,[7],103 % of control
C1=C(c2ccccc2)N2CCN=C2S1,T/C,"dose: 50.0 mg/kg/injection, schedule: Q01DX001 (ip), vehicle: carboxymethylcellulose (CMC)",100 % of control
CCCCN(CCCl)C1c2ccccc2-c2ccccc21,T/C,"dose: 25.0 mg/kg/injection, schedule: Q04DX002 (ip), vehicle: Klucel (hydroxypropylcellulose) (HPC)",106 % of control
same,T/C,[5],95 % of control
COCCCCO,T/C,[2],97 % of control
same,T/C,[3],97 % of control
same,T/C,[4],90 % of control
COC(OC)OC,T/C,[13],104 % of control
same,T/C,[14],100 % of control
same,T/C,[15],101 % of control
same,T/C,[16],105 % of control
same,T/C,[17],100 % of control
same,T/C,[18],105 % of control
CC(=O)c1ccc(OCc2ccccc2)cc1O,T/C,[13],111 % of control
same,T/C,[15],100 % of control
same,T/C,[17],100 % of control
CC([CH2][Hg][Cl])c1ccccc1 (configuration not stated),T/C,[9],95 % of control
same,T/C,[10],92 % of control
same,T/C,"dose: 6.25 mg/kg/injection, schedule: Q04DX003 (ip), vehicle: Klucel (hydroxypropylcellulose) (HPC)",101 % of control
same,T/C,[11],90 % of control
same,T/C,"dose: 12.5 mg/kg/injection, schedule: Q04DX003 (ip), vehicle: Klucel (hydroxypropylcellulose) (HPC)",119 % of control
